# Where two headings read alike, the source gives them in different places.
# Tests used:
# bovine α1A receptor = target: T1, bovine α1A receptor (Bos taurus, UniProt P18130); assay: FLIPR Ca+2 influx assay, a1A; type: cell-based; details: for a1A (eff): efficacy in brackets, norepinephrine is the standard full agonist, HEK 293 cells
# T1 sequence (P18130 1-466): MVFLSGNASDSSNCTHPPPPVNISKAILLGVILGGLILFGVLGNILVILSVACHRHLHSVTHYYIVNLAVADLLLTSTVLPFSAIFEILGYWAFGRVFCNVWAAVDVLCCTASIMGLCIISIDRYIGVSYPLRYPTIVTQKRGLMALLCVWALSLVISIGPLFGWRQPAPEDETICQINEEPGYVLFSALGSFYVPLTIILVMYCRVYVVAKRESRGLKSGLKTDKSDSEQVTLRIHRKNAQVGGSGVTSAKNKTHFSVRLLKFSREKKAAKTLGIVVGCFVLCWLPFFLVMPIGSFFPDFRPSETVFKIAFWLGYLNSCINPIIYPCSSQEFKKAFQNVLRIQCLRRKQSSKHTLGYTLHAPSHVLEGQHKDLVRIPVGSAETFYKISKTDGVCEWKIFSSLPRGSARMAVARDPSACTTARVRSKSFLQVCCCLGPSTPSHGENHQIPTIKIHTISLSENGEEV
# Description: (§1) HEK 293 cells stably expressing the bovine α1A receptor, human alpha 2A receptor and the chimeric G protein Gqi5, are plated in poly-D-lysine coated 384-well plates at 20,000-40,000 cells per well and grown overnight in DMEM supplemented with 10% fetal bovine serum. For FLIPR (fluorometric image plate reader) evaluation, cells are washed twice with HBSS/HEPES Buffer (1× Hanks Buffered Salt Solution, 20 mM HEPES, pH 7.4) prior to the addition of Fluo-4-AM (4 uM Fluo-4-AM, 0.04% pluronic acid in HBSS/HEPES Buffer), a calcium-sensitive dye. Cells are loaded with dye for 40 minutes at 37° C., then washed 4 times with HBSS/HEPES Buffer. For both the agonist and antagonist assay, the test compounds are tested between 0.64 nM-10,000 nM.
# (§2) For an agonist assay, the reaction is initiated by the addition of the appropriate dilutions of compounds and the transient calcium signal captured. The peak height of the calcium curve is determined and utilized for calculation of EC50 and efficacy using ActivityBase. Norepinephrine is the standard full agonist used for evaluating alpha-1 and alpha-2 receptor activity.
# However, the antagonist blocks the transient calcium signal of the standard agonist norepinephrine in a dose-dependent manner. The residual norepinephrine peak height is compared to the non-antagonized norepinephrine peak height for the determination of % antagonism.
# human alpha 2A receptor = target: T2, human alpha 2A receptor (Homo sapiens, UniProt P08913); assay: FLIPR Ca+2 influx assay, a2A; type: cell-based; details: for a2A (eff): efficacy in brackets, norepinephrine is the standard full agonist, HEK 293 cells
# T2 construct: expressed in transfected cells; host or cells: HEK 293
# T2 sequence (P08913 1-465): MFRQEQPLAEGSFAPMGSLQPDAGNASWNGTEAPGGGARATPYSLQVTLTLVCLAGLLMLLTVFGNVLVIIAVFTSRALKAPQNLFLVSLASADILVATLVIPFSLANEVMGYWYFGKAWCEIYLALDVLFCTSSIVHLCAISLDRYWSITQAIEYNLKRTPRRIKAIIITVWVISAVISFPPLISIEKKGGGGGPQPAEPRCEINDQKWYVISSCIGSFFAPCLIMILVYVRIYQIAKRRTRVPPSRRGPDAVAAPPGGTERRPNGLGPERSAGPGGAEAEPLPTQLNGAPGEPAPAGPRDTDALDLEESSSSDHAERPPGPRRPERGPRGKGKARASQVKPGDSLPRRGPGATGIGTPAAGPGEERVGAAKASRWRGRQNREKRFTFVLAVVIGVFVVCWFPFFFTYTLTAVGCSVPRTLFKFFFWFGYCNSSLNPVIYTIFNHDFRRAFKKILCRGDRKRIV
# Description: as §1, §2
# The residual norepinephrine peak height is compared to the non-antagonized norepinephrine peak height for the determination of % antagonism.
SMILES,EC50 (bovine α1A receptor) [nM],a1A (eff) (bovine α1A receptor),EC50 (human alpha 2A receptor) [nM],a2A (eff) (human alpha 2A receptor),"EC50 (bovine α1A receptor; HEK 293 cells with chimeric G protein Gqi5, agonist assay, tested 0.64 nM-10,000 nM, n/a: Not active, read-out: a1A EC50) [nM]"
Cc1c(CO)cccc1[C@H](C)c1c[nH]cn1 [(S)-[3-(1-(1H-imidazol-4-yl)ethyl)-2-methylphenyl]methanol],340 to 2400,0.7,25,0.9,
Brc1c(NC2=NCCN2)ccc2nccnc12 [Brimonidine],,0.3,,0.95,600 to 2400

# — patent US8492557B2, “Ester pro-drugs of [3-(1-(1H-imidazol-4-yl)ethyl)-2-methylphenyl] methanol” (Allergan, Inc., priority 2010, dated 2013)
